Source: patent US12497359B2, “Acrylamide derivatives” (NRG Therapeutics Ltd, priority 2020, dated 2025)
In brackets after ≈: the same amount, converted by molar mass.

Experiments:
PBS solubility = assay type: physicochemical; conditions: aqueous buffer, kinetic from dmso stock; PBS pH 7.4, 2 hr at 25° C.
Procedure, shortened: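 Compound from 10 mM DMSO stock was added in duplicate to FaSSIF or PBS (pH 7.4) and shaken at 1100 rpm for 2 hr at 25 °C. After filtration, the filtrate was quantified by LC-MS/MS with internal standard against a standard of known concentration.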

[1] = Hepatocyte clearance assay, rat; assay type: in vitro ADME; conditions: cryopreserved primary rat hepatocytes, average value from two experiments, read-out: Rat heps intrinsic clearance (CLint)
Procedure, shortened: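 Cryopreserved rat or human hepatocytes at 0.5×10^6 viable cells/mL in L-15 medium, compound incubated at 37° C. with sampling to 120 min, in duplicate; parent remaining by LC/MS/MS. Half-life from ln(% remaining) vs time slope; CLint (μL/min/1×10^6 cells) = kV/N, V 0.2 mL, N 0.1×10^6 cells.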

[2] = Hepatocyte clearance assay, human; assay type: in vitro ADME; conditions: cryopreserved primary human hepatocytes, average value from two experiments, read-out: Human heps intrinsic clearance (CLint)
Procedure: In vitro clearance studies were performed in primary rat and human hepatocytes (BioIVT). Vials of cryopreserved rat or human hepatocytes were thawed in a 37° C. water bath for 2 min. Cells were transferred into thawing medium (Williams' Medium E containing 30% Percoll, 1× GlutaMAX-1, 15 mM HEPES, 5% fetal bovine serum (FBS), 4 μg/ml insulin, 1 μM dexamethasone), centrifuged at 100 g for 10 min then resuspended in culture medium (Leibovitz's L-15 Medium) at a concentration of 0.5×10^6 viable cells/mL (number of viable cells assessed using AO/PI staining). Hepatocytes (198 μL) were transferred into wells of a 96-well non-coated plate and placed in a 37° C. incubator for 10 min. Test compound solutions were prepared from 10 mM stocks in DMSO, diluted to 100 μM in 50% (v/v in water) acetonitrile. Test compound samples (2 μl) were added to each well of hepatocytes and incubated at 37° C. Samples (25 μl) were collected at t=0, 15, 30, […] and 120 min, mixed with 6 volumes (150 μl) of acetonitrile containing internal standard (100 nM alprazolam, 200 nM caffeine and 100 nM tolbutamide), vortexed for 5 min and centrifuged for 45 min at 3220 g. An aliquot of supernatant (100 μL) was diluted with 100 μL ultra-pure water, and the mixture was used for LC/MS/MS analysis. All incubations were performed in duplicate. Peak areas were determined from extracted ion chromatograms. The slope value, k, was determined by linear regression of the natural logarithm of the remaining percentage of the parent drug vs. incubation time curve. The in vitro half-life (in vitro t1/2) was determined from the slope value: in vitro t1/2=0.693/k. Conversion of the in vitro t1/2 (in min) into the in vitro intrinsic clearance (in vitro CLint, in μL/min/1×10^6 cells) was done using the following equation (mean of duplicate determinations): • in vitro CLint=kV/N • V=incubation volume (0.2 mL) • N=number of hepatocytes per well (0.1×10^6 cells). Microsomal Clearance Assay

[3] = Microsomal clearance assay, rat liver microsomes; assay type: in vitro ADME; conditions: average value from two experiments, read-out: Rat liver microsomes intrinsic clearance (CLint)
Procedure: The microsomal stability of test compounds was evaluated using rat liver microsomes (BioIVT) with and without the cofactors nicotinamide adenine dinucleotide phosphate (NADPH) and uridine-diphosphate-glucuronic acid (UDPGA). Reactions were performed in a final volume of 250 μl pre-warmed (37° C.) 100 mM phosphate buffer containing 5 mM MgCl2, 0.025 mg/ml alamethicin, and 0.5 mg/ml rat liver microsomes. NADPH and UDPGA were included at 1 mM and 2 mM respectively, where appropriate. Reactions were started with the addition of 1 μM (final concentration) test compound. Verapamil was used as the positive control. Solutions were incubated in a water bath at 37° C. and aliquots collected at 0.5, 5, 15, 30 and 60 min. Reactions were stopped by the addition of 5 volumes of cold acetonitrile with internal standards (200 nM caffeine and 100 nM tolbutamide). Samples were centrifuged at 3220 g for 40 min. An aliquot of supernatant was diluted 1:1 In ultra-pure H20, then used for LC-MS/MS analysis. Peak areas were determined from extracted ion chromatograms. The slope value, k, was determined by linear regression of the natural logarithm of the remaining percentage of the parent drug vs. incubation time curve. The in vitro half-life (in vitro t1/2) was determined from the slope value: in vitro t1/2=0.693/k. Conversion of the in vitro t1/2 (min) into the in vitro intrinsic clearance (in vitro CLint, in μL/min/mg protein) was done using the following equation (mean of duplicate determinations): in vitro Clint=(0.693/t1/2)*(Vol of incubation (μl)/amount of protein (mg)).

hepatocyte CLint at 1 µM [2] | microsomal CLint at 1 µM [3] | SMILES | solubility at 2 h (PBS solubility) | hepatocyte CLint at 1 µM [1]
< 3 µL/min/1e6 cells | < 3 µL/min/mg | C[C@@H]1COc2ccccc2[C@@H]1NC(=O)/C=C/c1ccc2cn[nH]c2c1 (single isomer, unassigned) [Example 15d, (E)-3-(1H-indazol-6-yl)-N-(3-methylchroman-4-yl)acrylamide] | 2 µM (≈ 0.667 µg/mL) | –
< 3 µL/min/1e6 cells | 10 µL/min/mg | COCc1ccccc1NC(=O)/C=C/c1ccc2cn[nH]c2c1 [Example 29, (E)-3-(1H-indazol-6-yl)-N-(2-(methoxymethyl)phenyl)acrylamide] | 29 µM (≈ 8.91 µg/mL) | 10 µL/min/1e6 cells

SMILES | hepatocyte CLint at 1 µM [2] | microsomal CLint at 1 µM [3] | solubility at 2 h (PBS solubility) | hepatocyte CLint at 1 µM [1]
C[C@H]1Cc2ccccc2[C@@H]1NC(=O)/C=C/c1ccc2cn[nH]c2c1 (single isomer, unassigned) [Example 14c] | 40.4 µL/min/1e6 cells | – | 0.6 µM (≈ 0.19 µg/mL) | 48 µL/min/1e6 cells
O=C(/C=C/c1ccc2cn[nH]c2c1)N[C@@H]1CCc2ccccc21 [Example 3, (R,E)-N-(2,3-dihydro-1H-inden-1-yl)-3-(1H-indazol-6-yl)acrylamide] | – | 52 µL/min/mg | 2.2 µM (≈ 0.667 µg/mL) | 28 µL/min/1e6 cells
